Data as given in paper PMC6138628, “Enhanced uptake of gH625 by blood brain barrier compared to liver in vivo: characterization of the mechanism by an in vitro model and implications for delivery” (Scientific Reports, 2018).
Like-named read-outs stand apart in the source and are kept apart here. Residues, ends and D or L forms follow the SMILES beside them.

Columns and labels:
[1] = Circular dichroism spectroscopy; assay type: physicochemical; details: CD, peptide 8 µM, P/L 0.08; for Helix content: [θ]222, according to Chakrabartty et al., lipid 100 µM, 5 mM phosphate buffer, room temperature
Method: The samples were vortexed and lyophilized overnight.
CD spectra were recorded at room temperature on a Jasco J-715 spectropolarimeter in a 0.1 cm quartz cell. The spectra are an average of 3 consecutive scans from 260 to 190 nm, recorded with a band width of 3 nm, a time constant of 16 s, and a scan rate of 10 nm/min. Spectra were recorded and corrected for the blank. Mean residue ellipticities (MRE) were calculated as MRE = Obsd/lcn (Obsd is the ellipticity measured in millidegrees, l is the path length of the cell in cm, c is the peptide concentration in mol/l, and n is the number of amino acid residues in the peptide). A solution of 8 µM of peptide with SUVs, was prepared as previously described. […] The percentage of helix was calculated from measurements of their mean residue ellipticity at 222 nm[44]. We used [ϑ]222 values of 0 and −40.000(1–2.5/n) deg cm^2 dmol^−1 per amino acid residue for 0% and 100% helicity; n is the number of amino acid residues. The ratio of the ellipticities at 222 and 208 nm were used to discriminate between monomeric and oligomeric states of helices. The experiment was performed before and after centrifugation to remove eventual precipitated peptides from solution.

[2] = 0.1 mM lipid, 37 °C, 100% = Triton X-100, repeated at least three times
Method: Large unilamellar vesicles (LUVs) and small unilamellar vesicles (SUVs) consisting of PI/DOPE/DPPC/PS/Chol/SM (4/23/30/8/20/15 ratio in moles)[33],[34], DSPC/POPE/PI/PS/lysoPC/SM/DOPG (37/21/7/9/3/18/5 ratio in moles)[35], and when required containing Rho-PE and NBD-PE, were formulated in 5 mM HEPES, 100 mM NaCl, pH 7.4. LUVs were prepared using the extrusion method as previously reported; lipids were first dissolved in chloroform, then dried under a nitrogen gas stream and lyophilized overnight. For fluorescence experiments, buffer was added to dry lipid films and vortexed for 1 h; then the lipid suspension was freeze-thawed 6 times and extruded 20 times through polycarbonate membranes with 0.1 μm diameter pores to obtain LUVs. For circular dichroism measurements, peptide samples in SUVs were prepared using the following protocol. Lipids were dissolved in chloroform and added to an equal volume of peptide solution dissolved in TFE containing appropriate peptide concentration. The samples were vortexed and lyophilized overnight. The dry samples were rehydrated with phosphate buffer (5 mM) for 1 h and sonicated for 30 min.
Membrane lipid mixing was followed by the resonance energy transfer assay (FRET)[39].

brain / BBB = experiment: In vivo brain uptake, fluorescence microscopy of rat brain; parameters: species or system male Wistar rats; details: i.v., lower doses injected
Method: In vivo studies were performed in male Wistar rats housed under a 12 hours light-dark cycle with free access to food and water. The animals were allocated in five groups, each consisting of three rats. Three animal groups received a single i.v. administration of NBD-gH625 at a concentration of 10 µg, 20 µg, and 40 µg/100 g bw, respectively. Control group received vehicle while another group received gH-625 (40 µg/100 g bw). Both NBD-gH625 and gH625 were dissolved in phosphate-buffered saline. After 3.5 hours from the i.v. administration, the animals were anesthetized with Zoletil® (40 mg/100 g) and euthanized by decapitation. This study was carried out in strict accordance with recommendations in the European Guide for the Care and Use of Laboratory Animals. Every effort was made to minimize animal pain and suffering. All animal protocols were approved by the Committee on the Ethics of Animal Experiments of the University of Napoli Federico II (Italy) and the Italian Minister of Health. (Protocol number 2012/000180).
The ex-vivo fluorescence microscopy analysis was performed to evaluate the distribution of NBD-gH625 on both sides of the BBB. In order to evaluate if there is a linear relationship between slides fluorescence integrated density and the amount of the peptide, a calibration curve was obtained. In particular, increasing amounts of NBD-gH625 (0–30 µM) were spotted on microscope slides and images at 515 nm were acquired (See the Results section) and analysed as described below. Brains were removed from animals, sectioned sagittally in thick slices, washed in PBS, mounted on coverslips, stained with DAPI (4′–6 Diamidino-2-Phenylindole, Dilactate) (Invitrogen, Carlsbad, CA, USA) and analysed under Axioskop fluorescence microscope (Zeiss). Images, at least 10 field of view (800 × 700 μm each) for each experimental class, were acquired using an AxioCam MRc5 (Zeiss) with DAPI filter (λex 350 nm; λem 461 nm) and a fluorescein isothiocyanate filter (λex 488 nm; λem 515 nm).
To evaluate the distribution of NBD-gH625 on both sides of the BBB, we estimated the fluorescence inside the blood vessels (without discriminating between the amount present in the blood and that present in the endothelial cells) and outside the blood vessels in 10 images for each experimental class. In detail, to assess the NBD-gH625 that reached without crossing the BBB, we selected blood vessels as the region of interest (ROI) (inbound) and evaluated the fluorescence intensity; then, on the non-zero thresholded images, an inversion of selected ROI was carried out to obtain the complementary ROI to calculate the amounts of NBD-gH625 which crossed the BBB (outbound).
The morphology of blood vessels was easily identified and outlined; the images were calibrated by ImageJ Rodbard function; integrated density values were calculated within the outlines exclusively, to be considered as inside fluorescence. Then, the thresholded and outlined images, to exclude both blood vessels and background values, were used to calculate the integrated density as outside fluorescence.
To evaluate the effect of concentration on the systemic delivery of NBD-gH625, a fluorescence microscopy analysis was performed as previously reported.
Briefly, livers and brains were isolated and fixed for 24 hours in Bouin’s fixative (71% picric acid, 5% acetic acid, 24% formaldehyde) and embedded in paraffin wax (Carlo Erba, Milan, Italy). Tissue sections (10 μm of thickness) were incubated in 0.1% Sudan Black B dissolved in 70% ethanol for 20 minutes to reduce the tissues autofluorescence. The excess of Sudan Black B was removed by washing with Tris-buffered saline containing 0.02% Tween 20[30],[31]. Sections were stained with DAPI to counterstain nuclei, then mounted with a coverslip in glycerol/phosphate-buffered saline (1:1) and acquired using an AxioCam MRc5 with DAPI filter (λex 350 nm; λem 461 nm) and a fluorescein isothiocyanate filter (λex 488 nm; λem 515 nm). […]

SMILES: CC[C@H](C)[C@H](NC(=O)[C@H](CC(C)C)NC(=O)[C@H](C)NC(=O)[C@H](CC(N)=O)NC(=O)[C@H](Cc1ccc(O)cc1)NC(=O)[C@H](Cc1c[nH]cn1)NC(=O)[C@H](C)NC(=O)[C@H](Cc1c[nH]c2ccccc12)NC(=O)[C@H](CCCNC(=N)N)NC(=O)[C@@H](NC(=O)[C@H](CC(C)C)NC(=O)[C@@H](NC(=O)[C@H](CO)NC(=O)[C@H](C)NC(=O)[C@H](CC(C)C)NC(=O)CNC(=O)[C@@H](N)Cc1c[nH]cn1)[C@@H](C)O)[C@@H](C)O)C(=O)N[C@@H](CCCNC(=N)N)C(=O)N[C@@H](C)C(=O)N[C@@H](Cc1ccccc1)C(N)=O [gH625] (H-HGLASTLTRWAHYNALIRAF-NH2)
- Helix content ([1]; BBB mimicking SUVs): 58%
- Helix content ([1]; liver mimicking SUVs): 40%
- Ratio θ222/θ208 (monomeric < 0.8, oligomeric > 1.0) ([1]; BBB mimicking SUVs): approximately 0.68
- Ratio θ222/θ208 (monomeric < 0.8, oligomeric > 1.0) ([1]; liver mimicking SUVs): ~0.45
- Maximum peptide/lipid ratio (P/L), complete fusion of vesicles ([2]; LUVs DSPC/POPE/PI/PS/lysoPC/SM/DOPG (37/21/7/9/3/18/5)): 0.7
- Maximum peptide/lipid ratio (P/L), complete fusion of vesicles ([2]; LUVs PI/DOPE/DPPC/PS/Chol/SM (4/23/30/8/20/15)): 0.05
- Percentage of delivered peptide, brain compared to liver (brain / BBB): higher percentages of delivered peptide compared to the liver
